Measured values taken from ChEMBL document CHEMBL2331208, “Steroids glycosylated with both D- and L-arabinoses from the South China Sea gorgonian Dichotella gemmacea” (J Nat Prod, 2013).
Where a name gives a salt, the structure may show the parent alone.

Key:
[1] = tested on: A549; experiment: Cytotoxicity against human A549 cells by MTT assay; format: functional, cell-based
[2] = tested on: MG-63; experiment: Cytotoxicity against human MG63 cells by MTT assay; format: functional, cell-based

SMILES | IC50 [1] [µM] | IC50 [2] [µM]
CC(=O)O[C@@H]1[C@H](O[C@H]2CC[C@@]3(CO)C(=CC[C@@H]4[C@@H]3CC[C@]3(C)[C@@H]([C@H](C)CCCC(C)(C)OC(C)=O)CC[C@@H]43)C2)OC[C@@H](O)[C@H]1O [JUNCEELLOSIDE G] | 13.9 | 23
CC(=O)OC(C)(C)CCC[C@@H](C)[C@H]1CC[C@H]2[C@@H]3CC=C4C[C@@H](O[C@H]5OC[C@H](O)[C@H](O)[C@H]5O)CC[C@]4(CO)[C@H]3CC[C@]12C [JUNCEELLOSIDE C] | 11.4 | 17.2
COc1cccc2c1C(=O)c1c(O)c3c(c(O)c1C2=O)C[C@@](O)(C(=O)CO)C[C@@H]3O[C@H]1C[C@H](N)[C@H](O)[C@H](C)O1 [DOXORUBICIN HYDROCHLORIDE] |  | 3.4
CC(=O)OC(C)(C)C/C=C/[C@@H](C)[C@H]1CC[C@H]2[C@@H]3CC=C4C[C@@H](O[C@@H]5OC[C@@H](O)[C@@H](O)[C@@H]5O)CC[C@]4(CO)[C@H]3CC[C@]12C [JUNCEELLOSIDE F] | > 50 | 23
C=C(CC[C@@H](C)[C@H]1CC[C@H]2[C@@H]3CC=C4C[C@@H](O[C@H]5OC[C@H](O)[C@H](O)[C@H]5O)CC[C@]4(CO)[C@H]3CC[C@]12C)C(C)(C)OC(C)=O [JUNCEELLOSIDE E] | > 50 | > 50
